Test results as given in PMC12221116, “Novel Quinazolinones Active against Multidrug‐Resistant Mycobacterium Tuberculosis: Synthesis, Antimicrobial Evaluation, and in Silico Exploration of Penicillin‐Binding Protein 1A as a Potential Target” (Chemmedchem, 2025).
Values after ≈ are worked out from the molar mass of the structure shown. Like-named read-outs stand apart in the source and are kept apart here.

Assays:
Mtb H37Ra = assay: Microdilution broth resazurin assay, MIC; assay type: cell-based, Mycobacterium tuberculosis
M. kansasii = assay: Microplate Alamar Blue assay, MIC; assay type: cell-based, Mycobacterium kansasii; details: for MIC: Mycobacterium kansasii, read-out: Antimycobacterial Activity MIC M. kans.
M. avium = assay: Microdilution broth resazurin assay, MIC; assay type: cell-based, Mycobacterium avium
M. smegmatis = assay: Microdilution broth resazurin assay, MIC; assay type: cell-based, Mycolicibacterium smegmatis
M. aurum = assay: Microdilution broth resazurin assay, MIC; assay type: cell-based, Mycolicibacterium aurum
Mtb H37Rv = assay: Microplate Alamar Blue assay, MIC; assay type: cell-based, Mycobacterium tuberculosis; details: for MIC: Mycobacterium tuberculosis, H37RV
[1] = Mycobacterium tuberculosis, H37RA, read-out: Antimycobacterial Activity MIC Mtb H37Ra
[2] = Mycobacterium tuberculosis, H37RA; internal quality controls (standards); read-out: MINIMUM INHIBITORY CONCENTRATION Mycobacterium tuberculosis H37Ra
[3] = Mycobacterium avium, DSM44156; internal quality controls (standards); read-out: MINIMUM INHIBITORY CONCENTRATION Mycobacterium avium DSM 44156
[4] = Mycobacterium avium; read-out: Antimycobacterial Activity MIC M. avium
[5] = Mycolicibacterium smegmatis, DSM43465; internal quality controls (standards); read-out: MINIMUM INHIBITORY CONCENTRATION Mycolicibacterium smegmatis DSM 43465
[6] = Mycolicibacterium smegmatis; read-out: Antimycobacterial Activity MIC M. smeg.
[7] = Mycolicibacterium aurum, DSM43999; internal quality controls (standards); read-out: MINIMUM INHIBITORY CONCENTRATION Mycolicibacterium aurum DSM 43999
[8] = Mycolicibacterium aurum; read-out: Antimycobacterial Activity MIC M. aurum
[9] = Microplate Alamar Blue assay, read-out: Antimycobacterial Activity MIC Mtb H37Rv
[10] = Mycobacterium tuberculosis, H37RA; read-out: Antimycobacterial Activity MIC Mtb H37Ra
[11] = Mycobacterium avium, read-out: Antimycobacterial Activity MIC M. avium
[12] = Mycolicibacterium smegmatis, read-out: Antimycobacterial Activity MIC M. smeg.
[13] = Mycolicibacterium aurum, read-out: Antimycobacterial Activity MIC M. aurum
[14] = read-out: Antimycobacterial Activity MIC Mtb H37Rv, Table S5 matching pairs series A and B
[15] = Table S5 matching pairs series A and B

| SMILES | MIC (M. kansasii) [µg/mL] | MIC (Mtb H37Rv; [9]) [µg/mL] | MIC (Mtb H37Ra; [10]) [µg/mL] | MIC (M. avium; [11]) [µg/mL] | MIC (M. smegmatis; [12]) [µg/mL] | MIC (M. aurum; [13]) [µg/mL] | other results |
| --- | --- | --- | --- | --- | --- | --- | --- |
| O=C(O)c1cn(C2CC2)c2cc(N3CCNCC3)c(F)cc2c1=O [CIP, ciprofloxacin, reference compound] | 0.25 (≈ 0.754 µM) |  |  |  |  |  | MIC (Mtb H37Ra; [1]): 0.25 µg/mL (≈ 0.754 µM); MIC (Mtb H37Ra; [2]): 0.125 to 0.25 µg/mL (≈ 0.377 to 0.754 µM); MIC (M. avium; [3]): 0.5 µg/mL (≈ 1.51 µM); MIC (M. avium; [4]): 1.56 µg/mL (≈ 4.71 µM); MIC (M. smegmatis; [5]): 0.0625 to 0.125 µg/mL (≈ 0.189 to 0.377 µM); MIC (M. smegmatis; [6]): 0.125 µg/mL (≈ 0.377 µM); MIC (M. aurum; [7]): 0.0078 to 0.0156 µg/mL (≈ 0.0235 to 0.0471 µM); MIC (M. aurum; [8]): 0.0156 µg/mL (≈ 0.0472 µM) |
| Cc1nc2cc(Cl)ccc2c(=O)n1/N=C/c1ccc([N+](=O)[O-])cc1 [Compound 28] | > 25 | > 25 | ≥ 31.2 | ≥ 31.2 | ≥ 31.2 | ≥ 31.2 |  |
| COc1cccc(Cn2c(C)nc3cc(Cl)ccc3c2=O)c1 [Compound 16] | > 100 | > 100 |  |  | ≥ 125 | ≥ 125 | MIC (Mtb H37Rv; [14]): > 100 µg/mL; Antimycobacterial Activity MIC Mtb H37Ra (Mtb H37Ra): 62.5 µg/mL; MIC (Mtb H37Ra; [1]): 62.5 µg/mL (≈ 199 µM); MIC (M. avium; [4]): ≥ 500 µg/mL; Antimycobacterial Activity MIC M. avium (M. avium; [15]): ≥ 500 µg/mL; Antimycobacterial Activity MIC M. smeg. (M. smegmatis): ≥125 µg/mL; Antimycobacterial Activity MIC M. aurum (M. aurum): ≥125 µg/mL |
| Cc1ccccc1Cn1c(C)nc2cc(Cl)ccc2c1=O [Compound 20] | > 100 | > 100 |  |  |  |  | MIC (Mtb H37Rv; [14]): > 100 µg/mL; Antimycobacterial Activity MIC Mtb H37Ra (Mtb H37Ra): ≥250 µg/mL; MIC (Mtb H37Ra; [1]): ≥ 250 µg/mL; MIC (M. avium; [4]): ≥ 250 µg/mL; Antimycobacterial Activity MIC M. avium (M. avium; [15]): ≥ 250 µg/mL; MIC (M. smegmatis; [6]): ≥ 250 µg/mL; Antimycobacterial Activity MIC M. smeg. (M. smegmatis; [15]): ≥ 250 µg/mL; MIC (M. aurum; [8]): ≥ 250 µg/mL; Antimycobacterial Activity MIC M. aurum (M. aurum; [15]): ≥ 250 µg/mL |
| Cc1ccc(/C=N/n2c(C)nc3cc(Cl)ccc3c2=O)cc1 [Compound 48] | > 25 | > 25 | ≥ 31.2 | ≥ 31.2 | ≥ 31.2 | ≥ 31.2 |  |
| Cc1nc2cc(Cl)ccc2c(=O)n1/N=C/c1ccc(F)cc1 [Compound 44] | > 25 | > 25 | ≥ 31.2 | ≥ 31.2 | ≥ 31.2 | ≥ 31.2 |  |
| Cc1nc2cc(Cl)ccc2c(=O)n1Cc1ccc(O)cc1 [Compound 14] | > 100 | > 100 | 62.5 (≈ 208 µM) | 62.5 (≈ 208 µM) | 62.5 (≈ 208 µM) | 62.5 (≈ 208 µM) |  |
| Cc1nc2cc(Cl)ccc2c(=O)n1Cc1cccc(O)c1 [Compound 13] | > 100 | 50 (≈ 166 µM) | ≥ 62.5 |  | ≥ 62.5 | ≥ 62.5 | MIC (M. avium; [4]): 62.5 µg/mL (≈ 208 µM) |
| Cc1nc2ccccc2c(=O)n1Cc1cc(F)cc(C(F)(F)F)c1 [Compound 9] |  |  |  |  |  |  | Antimycobacterial Activity MIC Mtb H37Rv (Mtb H37Rv; Microplate Alamar Blue assay): >100 µg/mL; Antimycobacterial Activity MIC Mtb H37Ra (Mtb H37Ra): 125 µg/mL; Antimycobacterial Activity MIC M. kans. (M. kansasii): >100 µg/mL; Antimycobacterial Activity MIC M. avium (M. avium): 62.5 µg/mL; Antimycobacterial Activity MIC M. smeg. (M. smegmatis): ≥500 µg/mL; Antimycobacterial Activity MIC M. aurum (M. aurum): 62.5 µg/mL |
| Cc1nc2cc(Cl)ccc2c(=O)n1/N=C/c1ccncc1 [Compound 31] | > 25 | > 25 | ≥ 31.2 | ≥ 31.2 | ≥ 31.2 | ≥ 31.2 |  |
| Cc1nc2cc(Cl)ccc2c(=O)n1/N=C/c1cccc(Cl)c1 [Compound 50] | > 50 | > 50 | ≥ 62.5 | ≥ 62.5 | ≥ 62.5 | ≥ 62.5 |  |
| COc1cccc(/C=N/n2c(C)nc3cc(Cl)ccc3c2=O)c1 [Compound 39] | > 50 | > 50 | ≥ 62.5 | ≥ 62.5 | ≥ 62.5 | ≥ 62.5 |  |
| Cc1nc2cc(Cl)ccc2c(=O)n1/N=C/c1cccc(F)c1 [Compound 43] | > 25 | > 25 | ≥ 62.5 | ≥ 62.5 | ≥ 62.5 | ≥ 62.5 |  |
| Cc1nc2ccccc2c(=O)n1Cc1cccc(F)c1 [Compound 4] |  |  |  |  |  |  | Antimycobacterial Activity MIC Mtb H37Rv (Mtb H37Rv; Microplate Alamar Blue assay): 100 µg/mL; Antimycobacterial Activity MIC Mtb H37Ra (Mtb H37Ra): 250 µg/mL; Antimycobacterial Activity MIC M. kans. (M. kansasii): 50 µg/mL; Antimycobacterial Activity MIC M. avium (M. avium): 125 µg/mL; Antimycobacterial Activity MIC M. smeg. (M. smegmatis): 250 µg/mL; Antimycobacterial Activity MIC M. aurum (M. aurum): 500 µg/mL |
| Cc1nc2cc(Cl)ccc2c(=O)n1Cc1ccccc1F [Compound 18] | > 100 | > 100 | ≥ 500 |  |  |  | MIC (M. avium; [4]): ≥ 500 µg/mL; MIC (M. smegmatis; [6]): ≥ 500 µg/mL; MIC (M. aurum; [8]): ≥ 500 µg/mL |
| Cc1nc2cc(Cl)ccc2c(=O)n1Cc1ccc2ccccc2c1 [Compound 23] | > 100 | > 100 |  | ≥ 125 | ≥ 125 | ≥ 125 | MIC (Mtb H37Rv; [14]): > 100 µg/mL; Antimycobacterial Activity MIC Mtb H37Ra (Mtb H37Ra): ≥125 µg/mL; MIC (Mtb H37Ra; [1]): ≥ 125 µg/mL; Antimycobacterial Activity MIC M. avium (M. avium): ≥125 µg/mL; Antimycobacterial Activity MIC M. smeg. (M. smegmatis): ≥125 µg/mL; Antimycobacterial Activity MIC M. aurum (M. aurum): ≥125 µg/mL |
| Cc1nc2cc(Cl)ccc2c(=O)n1/N=C/c1ccccc1Br [Compound 52] | > 25 | > 25 | ≥ 31.2 | ≥ 31.2 | ≥ 31.2 | ≥ 31.2 |  |
| Cc1nc2ccccc2c(=O)n1Cc1ccc(Cl)cc1Cl [Compound 10] |  |  |  |  |  |  | Antimycobacterial Activity MIC Mtb H37Rv (Mtb H37Rv; Microplate Alamar Blue assay): >100 µg/mL; Antimycobacterial Activity MIC Mtb H37Ra (Mtb H37Ra): ≥250 µg/mL; Antimycobacterial Activity MIC M. kans. (M. kansasii): >100 µg/mL; Antimycobacterial Activity MIC M. avium (M. avium): ≥250 µg/mL; Antimycobacterial Activity MIC M. smeg. (M. smegmatis): ≥250 µg/mL; Antimycobacterial Activity MIC M. aurum (M. aurum): ≥250 µg/mL |
| Cc1nc2cc(Cl)ccc2c(=O)n1/N=C/c1ccccc1Cl [Compound 49] | > 25 | > 25 | ≥ 31.2 | ≥ 31.2 | ≥ 31.2 | ≥ 31.2 |  |
| Cc1nc2cc(Cl)ccc2c(=O)n1/N=C/c1cccc(Br)c1 [Compound 53, (E)-7-Chloro-3-((3-bromobenzylidene)amino)-2-methylquinazolin-4(3H)-one] | > 25 | > 25 | ≥ 31.2 | ≥ 31.2 | ≥ 31.2 | ≥ 31.2 |  |
| CO[C@H]1/C=C/O[C@@]2(C)Oc3c(C)c(O)c4c(O)c(c(/C=N/N5CCN(C)CC5)c(O)c4c3C2=O)NC(=O)/C(C)=C\C=C\[C@H](C)[C@H](O)[C@@H](C)[C@@H](O)[C@@H](C)[C@H](OC(C)=O)[C@@H]1C [RIF, rifampicin] | 0.025 (≈ 0.0304 µM) |  | 0.00156 (≈ 0.0019 µM) |  |  |  | MIC (Mtb H37Ra; [2]): 0.00156 to 0.0031 µg/mL (≈ 0.0019 to 0.00377 µM); MIC (M. avium; [3]): 0.0625 to 0.125 µg/mL (≈ 0.0759 to 0.152 µM); MIC (M. avium; [4]): 0.125 µg/mL (≈ 0.152 µM); MIC (M. smegmatis; [5]): 12.5 to 25 µg/mL (≈ 15.2 to 30.4 µM); MIC (M. smegmatis; [6]): 12.5 µg/mL (≈ 15.2 µM); MIC (M. aurum; [7]): 0.39 to 0.78 µg/mL (≈ 0.474 to 0.948 µM); MIC (M. aurum; [8]): 0.39 µg/mL (≈ 0.474 µM) |
| Cc1nc2cc(Cl)ccc2c(=O)n1/N=C/C=C/c1ccccc1 [Compound 41] | > 25 | > 25 | ≥ 31.2 | ≥ 31.2 | ≥ 31.2 | ≥ 31.2 |  |
| Cc1nc2ccccc2c(=O)n1Cc1ccc(C(F)(F)F)cc1 [Compound 7] |  |  |  |  |  |  | Antimycobacterial Activity MIC Mtb H37Rv (Mtb H37Rv; Microplate Alamar Blue assay): >100 µg/mL; Antimycobacterial Activity MIC Mtb H37Ra (Mtb H37Ra): 62.5 µg/mL; Antimycobacterial Activity MIC Mtb H37Ra (Mtb H37Ra; [15]): 62.5 µg/mL; Antimycobacterial Activity MIC M. kans. (M. kansasii): >100 µg/mL; Antimycobacterial Activity MIC M. avium (M. avium): 125 µg/mL; Antimycobacterial Activity MIC M. avium (M. avium; [15]): 125 µg/mL; Antimycobacterial Activity MIC M. smeg. (M. smegmatis): 250 µg/mL; Antimycobacterial Activity MIC M. smeg. (M. smegmatis; [15]): 250 µg/mL; Antimycobacterial Activity MIC M. aurum (M. aurum): 125 µg/mL; Antimycobacterial Activity MIC M. aurum (M. aurum; [15]): 125 µg/mL |
| COc1cc(/C=N/n2c(C)nc3cc(Cl)ccc3c2=O)ccc1O [Compound 34] | > 100 | > 100 | ≥ 62.5 | ≥ 62.5 | ≥ 62.5 | ≥ 62.5 |  |
